Publication PMC10023787, “Trio-pharmacophore DNA-encoded chemical library for simultaneous selection of fragments and linkers” (Nature Communications, 2023)
Read-outs that look alike come from different tables or passages of the source.

Tests used:
MMP-9 = target: T1, MMP-9 (Homo sapiens, UniProt P14780); experiment: MMP-9 inhibition assay (fluorogenic peptide substrate); type: biochemical; set-up: remaining enzyme activity (% of control): scale not given here; conditions: for IC50: n.d: not detected
T1 construct: purchased Sino Biological 10327-HNAH
T1 sequence (P14780 107-707 limits assumed): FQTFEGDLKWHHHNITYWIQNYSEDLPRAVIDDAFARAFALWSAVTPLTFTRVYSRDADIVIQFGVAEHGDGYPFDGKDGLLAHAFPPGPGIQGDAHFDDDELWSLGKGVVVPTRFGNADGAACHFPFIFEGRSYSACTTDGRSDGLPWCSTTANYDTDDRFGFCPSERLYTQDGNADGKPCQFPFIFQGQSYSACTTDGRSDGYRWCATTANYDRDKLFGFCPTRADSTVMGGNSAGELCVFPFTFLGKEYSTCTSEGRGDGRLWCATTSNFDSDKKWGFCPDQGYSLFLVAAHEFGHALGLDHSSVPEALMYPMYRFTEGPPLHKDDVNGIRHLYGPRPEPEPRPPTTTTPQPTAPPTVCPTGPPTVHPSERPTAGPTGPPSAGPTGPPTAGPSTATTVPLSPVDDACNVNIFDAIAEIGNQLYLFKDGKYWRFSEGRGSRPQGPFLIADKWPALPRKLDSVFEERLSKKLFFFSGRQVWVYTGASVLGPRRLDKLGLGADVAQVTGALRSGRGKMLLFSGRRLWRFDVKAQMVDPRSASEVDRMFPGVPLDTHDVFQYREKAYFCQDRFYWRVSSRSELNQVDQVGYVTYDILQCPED
How it was run: (§1)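 Human proMMP-2 and proMMP-9 were activated with 1 mM APMA (37 °C, 2 h), then used at 6.5 nM (MMP-2) or 10 nM (MMP-9) in Tris/NaCl/CaCl2/Brij 35 buffer, pH 7.5. Enzyme was preincubated with compound 30 min at RT; 25 μM DNP-Pro-Leu-Gly-Met-Trp-Ser-Arg substrate was added and fluorescence (ex 280/em 360 nm) followed 30 min. IC50 from logistic fits of Vmax.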

MMP-2 = target: T2, MMP-2 (Homo sapiens, UniProt P08253); experiment: MMP-2 inhibition assay (fluorogenic peptide substrate); type: biochemical; conditions: for IC50: n.d: not detected
T2 construct: purchased Sino Biological 10082-HNAH
T2 sequence (P08253 110-660): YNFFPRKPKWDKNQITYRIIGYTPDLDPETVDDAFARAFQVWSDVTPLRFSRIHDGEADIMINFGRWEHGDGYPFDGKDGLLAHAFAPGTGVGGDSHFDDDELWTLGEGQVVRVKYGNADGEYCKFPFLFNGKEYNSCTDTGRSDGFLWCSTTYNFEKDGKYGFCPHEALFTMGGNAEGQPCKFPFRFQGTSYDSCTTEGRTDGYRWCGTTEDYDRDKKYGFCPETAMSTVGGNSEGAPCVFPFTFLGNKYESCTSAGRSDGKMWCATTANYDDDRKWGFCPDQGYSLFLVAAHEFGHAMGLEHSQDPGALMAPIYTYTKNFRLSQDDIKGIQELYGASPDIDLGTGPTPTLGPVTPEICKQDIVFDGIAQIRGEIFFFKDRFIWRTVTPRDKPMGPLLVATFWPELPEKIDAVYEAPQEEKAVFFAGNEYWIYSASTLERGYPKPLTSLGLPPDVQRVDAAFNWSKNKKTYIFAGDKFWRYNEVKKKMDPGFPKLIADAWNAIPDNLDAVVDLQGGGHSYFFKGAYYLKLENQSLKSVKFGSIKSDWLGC
How it was run: as §1

[1] = mean ± SE, Fig. 5e prints no unit, µM, read-out: IC50
[2] = mean ± SE, Fig. 5d unit inferred, µM, read-out: IC50
[3] = Figure 5d, fragment combination joined by linker, read-out: MMP9 IC50
[4] = Figure 5d, fragment combination joined by linker, read-out: MMP2 IC50

O=C(Cn1cnc2c(oc3ccccc32)c1=O)NCCNC(=O)c1cncc(O)c1 [182+828 Linker 1]
remaining enzyme activity (% of control) (MMP-9; MMP-9, concentration 0.08 µM): 88.36
remaining enzyme activity (% of control) (MMP-9; MMP-9, concentration 0.42 µM): 92.30
remaining enzyme activity (% of control) (MMP-9; MMP-9, concentration 2.10 µM): 86.01
remaining enzyme activity (% of control) (MMP-9; MMP-9, concentration 10.52 µM): 90.65
remaining enzyme activity (% of control) (MMP-9; MMP-9, concentration 52.60 µM): 56.79
remaining enzyme activity (% of control) (MMP-9; MMP-9, concentration 263.00 µM): 22.31
remaining enzyme activity (% of control) (MMP-9; MMP-9, concentration 1315.00 µM): 0.00
IC50 (MMP-9; [1]): 92.1 ± 28.2 µM
remaining activity (%) (MMP-2; MMP-2, concentration 0.00933 µM): 100.18
remaining activity (%) (MMP-2; MMP-2, concentration 0.0466 µM): 86.28
remaining activity (%) (MMP-2; MMP-2, concentration 0.23 µM): 84.03
remaining activity (%) (MMP-2; MMP-2, concentration 5.83 µM): 81.34
remaining activity (%) (MMP-2; MMP-2, concentration 29.14 µM): 67.66
remaining activity (%) (MMP-2; MMP-2, concentration 145.72 µM): 34.11
remaining activity (%) (MMP-2; MMP-2, concentration 728.60 µM): 8.96
IC50 (MMP-2; [2]): 77.1 ± 10 µM

O=C(Cn1cnc2c(oc3ccccc32)c1=O)NCCCCCCCCNC(=O)c1cncc(O)c1 [182+828 Linker 4]
remaining enzyme activity (% of control) (MMP-9; MMP-9, concentration 0.08 µM): 90.17
remaining enzyme activity (% of control) (MMP-9; MMP-9, concentration 0.39 µM): 88.39
remaining enzyme activity (% of control) (MMP-9; MMP-9, concentration 1.95 µM): 91.84
remaining enzyme activity (% of control) (MMP-9; MMP-9, concentration 9.75 µM): 88.91
remaining enzyme activity (% of control) (MMP-9; MMP-9, concentration 48.76 µM): 78.10
remaining enzyme activity (% of control) (MMP-9; MMP-9, concentration 243.80 µM): 49.14
remaining enzyme activity (% of control) (MMP-9; MMP-9, concentration 1219.00 µM): 0.00
IC50 (MMP-9; [1]): 233 ± 38.3 µM
remaining activity (%) (MMP-2; MMP-2, concentration 0.0078 µM): 107.56
remaining activity (%) (MMP-2; MMP-2, concentration 0.20 µM): 99.59
remaining activity (%) (MMP-2; MMP-2, concentration 0.98 µM): 97.94
remaining activity (%) (MMP-2; MMP-2, concentration 4.88 µM): 101.19
remaining activity (%) (MMP-2; MMP-2, concentration 24.38 µM): 85.36
remaining activity (%) (MMP-2; MMP-2, concentration 121.90 µM): 64.62
remaining activity (%) (MMP-2; MMP-2, concentration 609.50 µM): 31.91
remaining activity (%) (MMP-2; MMP-2, concentration 0.04 µM): 116.92
IC50 (MMP-2; [2]): 188 ± 25.7 µM

O=C(Cn1cnc2c(oc3ccccc32)c1=O)NCCOCCOCCNC(=O)c1cncc(O)c1 [182+828 Linker 10]
remaining enzyme activity (% of control) (MMP-9; MMP-9, concentration 0.06 µM): 97.14
remaining enzyme activity (% of control) (MMP-9; MMP-9, concentration 0.29 µM): 97.22
remaining enzyme activity (% of control) (MMP-9; MMP-9, concentration 1.46 µM): 90.75
remaining enzyme activity (% of control) (MMP-9; MMP-9, concentration 7.32 µM): 93.96
remaining enzyme activity (% of control) (MMP-9; MMP-9, concentration 36.60 µM): 74.71
remaining enzyme activity (% of control) (MMP-9; MMP-9, concentration 183.00 µM): 29.12
remaining enzyme activity (% of control) (MMP-9; MMP-9, concentration 915.00 µM): 0.00
IC50 (MMP-9; [1]): 99.6 ± 31.7 µM
remaining activity (%) (MMP-2; MMP-2, concentration 0.0117 µM): 98.76
remaining activity (%) (MMP-2; MMP-2, concentration 0.06 µM): 98.75
remaining activity (%) (MMP-2; MMP-2, concentration 0.29 µM): 92.92
remaining activity (%) (MMP-2; MMP-2, concentration 1.46 µM): 80.34
remaining activity (%) (MMP-2; MMP-2, concentration 7.32 µM): 73.36
remaining activity (%) (MMP-2; MMP-2, concentration 36.60 µM): 63.34
remaining activity (%) (MMP-2; MMP-2, concentration 183.00 µM): 14.49
remaining activity (%) (MMP-2; MMP-2, concentration 915.00 µM): 0.00
IC50 (MMP-2; [2]): 43 ± 19.3 µM

O=C(/C=C/CCCCNC(=O)c1cncc(O)c1)CC(=O)NCCNC(=O)Cn1cnc2c(oc3ccccc32)c1=O [182+828 Linker 12]
remaining activity at 0.0466 µM (MMP-9; MMP-9, concentration 0.0466 µM, read-out: Mean (MMP-9, Supplementary fig 16)): 97.3%
remaining activity at 0.23 µM (MMP-9; MMP-9, concentration 0.23 µM, read-out: Mean (MMP-9, Supplementary fig 16)): 81.8%
remaining activity at 1.17 µM (MMP-9; MMP-9, concentration 1.17 µM, read-out: Mean (MMP-9, Supplementary fig 16)): 81.4%
remaining activity at 5.83 µM (MMP-9; MMP-9, concentration 5.83 µM, read-out: Mean (MMP-9, Supplementary fig 16)): 70.8%
remaining activity at 29.14 µM (MMP-9; MMP-9, concentration 29.14 µM, read-out: Mean (MMP-9, Supplementary fig 16)): 63.8%
remaining activity at 145.72 µM (MMP-9; MMP-9, concentration 145.72 µM, read-out: Mean (MMP-9, Supplementary fig 16)): 15.2%
remaining activity at 728.6 µM (MMP-9; MMP-9, concentration 728.60 µM, read-out: Mean (MMP-9, Supplementary fig 16)): 0%
IC50 (MMP-9; [1]): 45.9 ± 24.2 µM
remaining activity at 0.0168 µM (MMP-2; MMP-2, concentration 0.0168 µM, read-out: Mean (MMP-2, Supplementary fig 16)): 102%
remaining activity at 0.08 µM (MMP-2; MMP-2, concentration 0.08 µM, read-out: Mean (MMP-2, Supplementary fig 16)): 100%
remaining activity at 0.42 µM (MMP-2; MMP-2, concentration 0.42 µM, read-out: Mean (MMP-2, Supplementary fig 16)): 98.9%
remaining activity at 2.1 µM (MMP-2; MMP-2, concentration 2.10 µM, read-out: Mean (MMP-2, Supplementary fig 16)): 113%
remaining activity at 10.52 µM (MMP-2; MMP-2, concentration 10.52 µM, read-out: Mean (MMP-2, Supplementary fig 16)): 85.5%
remaining activity at 52.6 µM (MMP-2; MMP-2, concentration 52.60 µM, read-out: Mean (MMP-2, Supplementary fig 16)): 48.1%
remaining activity at 263 µM (MMP-2; MMP-2, concentration 263.00 µM, read-out: Mean (MMP-2, Supplementary fig 16)): 6.96%
remaining activity at 1315 µM (MMP-2; MMP-2, concentration 1315.00 µM, read-out: Mean (MMP-2, Supplementary fig 16)): 0%
IC50 (MMP-2; [2]): 50.3 ± 11.1 µM

O=C(CSCCNC(=O)c1cncc(O)c1)NCCNC(=O)Cn1cnc2c(oc3ccccc32)c1=O [182+828 Linker 24]
remaining activity at 0.0548 µM (MMP-9; MMP-9, concentration 0.0548 µM, read-out: Mean (MMP-9, Supplementary fig 16)): 95.4%
remaining activity at 0.27 µM (MMP-9; MMP-9, concentration 0.27 µM, read-out: Mean (MMP-9, Supplementary fig 16)): 85.7%
remaining activity at 1.37 µM (MMP-9; MMP-9, concentration 1.37 µM, read-out: Mean (MMP-9, Supplementary fig 16)): 87.6%
remaining activity at 6.86 µM (MMP-9; MMP-9, concentration 6.86 µM, read-out: Mean (MMP-9, Supplementary fig 16)): 77.5%
remaining activity at 34.28 µM (MMP-9; MMP-9, concentration 34.28 µM, read-out: Mean (MMP-9, Supplementary fig 16)): 52.4%
remaining activity at 171.4 µM (MMP-9; MMP-9, concentration 171.40 µM, read-out: Mean (MMP-9, Supplementary fig 16)): 0%
remaining activity at 857 µM (MMP-9; MMP-9, concentration 857.00 µM, read-out: Mean (MMP-9, Supplementary fig 16)): 0%
IC50 (MMP-9; [1]): 35.3 ± 15 µM
remaining activity at 0.011 µM (MMP-2; MMP-2, concentration 0.011 µM, read-out: Mean (MMP-2, Supplementary fig 16)): 96.4%
remaining activity at 0.0548 µM (MMP-2; MMP-2, concentration 0.0548 µM, read-out: Mean (MMP-2, Supplementary fig 16)): 104%
remaining activity at 0.27 µM (MMP-2; MMP-2, concentration 0.27 µM, read-out: Mean (MMP-2, Supplementary fig 16)): 97.6%
remaining activity at 1.37 µM (MMP-2; MMP-2, concentration 1.37 µM, read-out: Mean (MMP-2, Supplementary fig 16)): 90.8%
remaining activity at 6.86 µM (MMP-2; MMP-2, concentration 6.86 µM, read-out: Mean (MMP-2, Supplementary fig 16)): 86.3%
remaining activity at 34.28 µM (MMP-2; MMP-2, concentration 34.28 µM, read-out: Mean (MMP-2, Supplementary fig 16)): 48.6%
remaining activity at 171.4 µM (MMP-2; MMP-2, concentration 171.40 µM, read-out: Mean (MMP-2, Supplementary fig 16)): 5.35%
remaining activity at 857 µM (MMP-2; MMP-2, concentration 857.00 µM, read-out: Mean (MMP-2, Supplementary fig 16)): 0%
IC50 (MMP-2; [2]): 33.3 ± 6.4 µM

O=C(Cn1cnc2c(oc3ccccc32)c1=O)NCc1c[nH]nn1 [182_787 1]
IC50 (MMP-9; [3]): 143 µM
IC50 (MMP-2; [4]): 95.5 µM

O=C(CCC(=O)NCc1c[nH]nn1)NCCCCCCCCNC(=O)Cn1cnc2c(oc3ccccc32)c1=O [182_787 4]
IC50 (MMP-9; [3]): 134 µM
IC50 (MMP-2; [4]): 193 µM

O=C(CSCCNC(=O)Cn1cnc2c(oc3ccccc32)c1=O)NCc1c[nH]nn1 [182_787 24]
IC50 (MMP-9; [3]): 126 µM
IC50 (MMP-2; [4]): 45.9 µM

Cn1c(O)nc2cc(C(=O)NCCCCC=CC(=O)CC(=O)NCCNC(=O)Cn3cnc4c(oc5ccccc54)c3=O)cnc21 [182_826 12]
IC50 (MMP-9; [3]): 131 µM
IC50 (MMP-2; [4]): 62.3 µM

O=C(Cn1cnc2c(oc3ccccc32)c1=O)NCCNC(=O)c1cncc(O)c1 [182_828 1]
IC50 (MMP-9; [3]): 92.1 µM
IC50 (MMP-2; [4]): 77.1 µM

O=C(Cn1cnc2c(oc3ccccc32)c1=O)NCCCCCCCCNC(=O)c1cncc(O)c1 [182_828 4]
IC50 (MMP-9; [3]): 233 µM
IC50 (MMP-2; [4]): 188 µM

O=C(Cn1cnc2c(oc3ccccc32)c1=O)NCCOCCOCCNC(=O)c1cncc(O)c1 [182_828 10]
IC50 (MMP-9; [3]): 99.6 µM
IC50 (MMP-2; [4]): 43 µM

O=C(/C=C/CCCCNC(=O)c1cncc(O)c1)CC(=O)NCCNC(=O)Cn1cnc2c(oc3ccccc32)c1=O [182_828 12]
IC50 (MMP-9; [3]): 45.9 µM
IC50 (MMP-2; [4]): 50.3 µM

O=C(CSCCNC(=O)c1cncc(O)c1)NCCNC(=O)Cn1cnc2c(oc3ccccc32)c1=O [182_828 24]
IC50 (MMP-9; [3]): 35.3 µM
IC50 (MMP-2; [4]): 33.3 µM
